ChEMBL document CHEMBL4732248, “Synthesis and antibacterial activities of marine natural product ianthelliformisamines and subereamine synthetic analogues” (Bioorg Med Chem Lett, 2021)
Values after ≈ are worked out from the molar mass of the structure shown. Active and inactive are the calls of the source. The calls are words filed in the database; no cut-off is given here.

Legend:
Staphylococcus aureus [1] = experiment: Antibacterial activity against Staphylococcus aureus assessed as bacterial growth inhibition measured after 24 hrs by broth dilution assay; type: functional, organism-based; conditions: for MIC: time 24 hrs; for IC50: 24 h
Escherichia coli [2] = experiment: Antibacterial activity against Escherichia coli assessed as bacterial growth inhibition measured after 24 hrs by broth dilution assay; type: functional, organism-based; conditions: for MIC: time 24 hrs; for IC50: 24 h
Cell membrane [3] = experiment: Induction of cell membrane permeabilization in Escherichia coli assessed as increase in propidium iodide intake at MIC by propidium iodide staining based assay; conditions: TDE = time-dependent effect
Escherichia coli [4] = experiment: Antibacterial activity against Escherichia coli assessed as zone of inhibition at 25 to 100 ug by disc diffusion method; type: functional, organism-based; conditions: dose 25-100 µg
[5] = Cytotoxicity against human HEK293 cells assessed as viable cells at 50 uM after 48 hrs by calcein-AM staining based fluorescence analysis; type: cell-based; conditions: read-out: Activity
Cell membrane [6] = experiment: Induction of cell membrane permeabilization in Staphylococcus aureus assessed as increase in propidium iodide intake at MIC by propidium iodide staining based assay; conditions: time 48.0 hrs, TDE = time-dependent effect
Staphylococcus aureus [7] = experiment: Antibacterial activity against Staphylococcus aureus assessed as minimum concentration required to decrease 90% bacteria measured after 24 hrs by broth dilution assay; type: functional
Staphylococcus aureus [8] = experiment: Antibacterial activity against Staphylococcus aureus assessed as zone of inhibition at 25 to 100 ug by disc diffusion method; type: functional, organism-based; conditions: dose 25-100 µg
Escherichia coli [9] = experiment: Antibacterial activity against Escherichia coli assessed as minimum concentration required to decrease 90% bacteria measured after 24 hrs by broth dilution assay; type: functional

SMILES | MIC (Staphylococcus aureus [1]) [µM] | MIC (Escherichia coli [2]) [µM] | IC50 (Staphylococcus aureus [1]) [µM] | IC50 (Escherichia coli [2]) [µM] | Activity (Cell membrane [3]) | inhibition (Escherichia coli [4]) | viability at 48 h, 50 µM [5] [%] | Activity (Cell membrane [6]) | MBC (Staphylococcus aureus [7]) [µM] | inhibition (Staphylococcus aureus [8]) | MBC (Escherichia coli [9]) [µM]
COc1c(Br)cc(Br)c(/C=C/C(=O)NCCCNCc2cccc(CNCCCNC(=O)/C=C/c3c(Br)cc(Br)c(OC)c3Br)c2)c1Br | > 200 | > 200 | – | – | – | – | – | – | – | – | –
COc1c(Br)cc(/C=C/C(=O)NCCCNCc2cccc(CNCCCNC(=O)/C=C/c3cc(Br)c(OC)c(Br)c3)c2)cc1Br | > 200 | > 200 | – | – | – | – | – | – | – | – | –
CC1(C)S[C@@H]2[C@H](NC(=O)[C@H](N)c3ccccc3)C(=O)N2[C@H]1C(=O)O [AMPICILLIN] | – | – | 3.8 | 33.6 | – | – | – | – | – | – | –
COc1cc(/C=C\C(=O)NCCCNCc2cccc(CNCCCNC(=O)/C=C\c3cc(OC)c(Br)cc3Br)c2)c(Br)cc1Br | 50 (≈ 44.3 µg/mL) | 25 (≈ 22.2 µg/mL) | 13.9 | 37.3 | Tde | Active | > 95 | Tde | 50 (≈ 44.3 µg/mL) | Active | 25 (≈ 22.2 µg/mL)
